Results: US20030162187A1, “Method of detecting sexual differentiation disruptor” (priority 1999, published 2003)

Test system: Qurt medaka
Assay: Detection of sexual differentiation-disrupting activity: eggs bred in test solution, genotypic sex by pigment, phenotypic sex by RT-PCR of female-specific Gene 5
Format: in vivo, medaka (Oryzias latipes)
Conditions: fries hatched from eggs treated with 1 ppb 17 β-estradiol
Procedure: Pairs of mature Qurt medakas each consisting of one male and one female were bred in 3 L of green water (purified water containing chlorella from green algae) at 25° C. under conditions of a light period for 14 hours and a dark period for 10 hours. They were fed with TetraMin three to five times a day setting the amount of TetraMin such that it was consumed within three to five minutes,;and then spawned. Eggs resulted from five pairs were placed in a Petri dish immediately after spawning, separated each other using tweezers in tap water from which chlorine had been removed and washed. The water was replaced by a 1 -ppb 17 β-estradiol (E2) aqueous solution containing 0.1% dimethyl sulfoxide. The mixture was dispensed into wells of 96-well round bottom microplate (#3797, Corning) which had been extensively washed with ultrapure water such that each well contained one egg. After covering with a lid, the microplate was incubated in an incubator at 25° C. On the third day from the start of incubation, males and females were distinguished by examining the yellow pigment which is expressed in a male-specific manner as autofluorescence using a fluorescence microscope (Nikon) The incubation was further continued, and fries then hatched on the 7th to 9th day after spawning. Fries were collected on the 12th day after spawning (the 3rd to 5th day after hatching), then soaked in RNAlater (#7021, Ambion) and stored at −80° C. RNAs were extracted from the fries using StrataPrep Total RNA Miniprep Kit (#400711, Stratagene). The test samples were soaked in a lysis solution attached to the kit, and homogenized in 1.5 -mL tubes using a pellet mixer (Urin Seisakusho). Then, extraction was completed according to the manual attached to the kit. The extracted RNAs were subjected to TaKaRa One Step RNA PCR Kit (AMV) (Takara Shuzo). 1st PCRs were carried out using a pair of primers F1 (SEQ ID NO: 30) and R1 (SEQ ID NO: 31) which is used to amplify a region of 729 bp in Gene 5 (SEQ ID NO: 5), a gene expressed in a female-specific manner. […]

SMILES: C[C@]12CC[C@@H]3c4ccc(O)cc4CC[C@H]3[C@@H]1CC[C@@H]2O [17 β-estradiol]
- genotypic females for which expression of Gene 6 was not observed: two out of the five
- genotypic males for which expression of Gene 5 was observed: two out of the five
- sexual differentiation (genotypic vs phenotypic sex): the sexual differentiation was disrupted
